ChEMBL document CHEMBL1909294, “Translating clinical findings into knowledge in drug safety evaluation--drug induced liver injury prediction system (DILIps)” (PLoS Comput Biol, 2011)

How the values were obtained:
[1] = system: Hepatotoxicity;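 on HepSE Combined Scores: combined hepatic side effect score as listed in the training data of the Drug Induced Liver Injury Prediction System (DILIps)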;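 on HepSE cholecystitis: Cholecystitis-related hepatic side effect score drawn from the DILIps (drug-induced liver injury prediction) training data set; call rule not given here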;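 on HepSE cholelithiasis: hepatic side effect score for cholelithiasis, drawn from the DILIps training data for predicting drug-induced liver injury; call rule not given here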;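 on HepSE cirrhosis: cirrhosis hepatic side effect score taken from the DILIps (drug-induced liver injury prediction) training set; call rule not given here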;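 on HepSE hepatitis: Hepatitis-related hepatic side effect score taken from the training data of DILIps, a prediction system for drug-induced liver injury; call rule not given here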; on HepSE liver disease: call rule not given here;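 on HepSE liver function tests abnormal: hepatic side effect score taken from the DILIps (drug-induced liver injury prediction system) training data, here covering abnormal liver function test findings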
[2] = system: Hepatotoxicity; remark: listed apart in the source;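 on HepSE Combined Scores: combined hepatic side effect score as listed in the training data of the Drug Induced Liver Injury Prediction System (DILIps)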;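 on HepSE cholecystitis: Cholecystitis-related hepatic side effect score drawn from the DILIps (drug-induced liver injury prediction) training data set; call rule not given here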;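 on HepSE cholelithiasis: hepatic side effect score for cholelithiasis, drawn from the DILIps training data for predicting drug-induced liver injury; call rule not given here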;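 on HepSE hepatitis: Hepatitis-related hepatic side effect score taken from the training data of DILIps, a prediction system for drug-induced liver injury; call rule not given here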; on HepSE liver disease: call rule not given here;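 on HepSE liver function tests abnormal: hepatic side effect score taken from the DILIps (drug-induced liver injury prediction system) training data, here covering abnormal liver function test findings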
[3] = system: Hepatotoxicity; remark: listed apart in the source;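 on HepSE Combined Scores: combined hepatic side effect score as listed in the training data of the Drug Induced Liver Injury Prediction System (DILIps)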;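 on HepSE cholecystitis: Cholecystitis-related hepatic side effect score drawn from the DILIps (drug-induced liver injury prediction) training data set; call rule not given here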;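 on HepSE cholelithiasis: hepatic side effect score for cholelithiasis, drawn from the DILIps training data for predicting drug-induced liver injury; call rule not given here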;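 on HepSE hepatitis: Hepatitis-related hepatic side effect score taken from the training data of DILIps, a prediction system for drug-induced liver injury; call rule not given here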; on HepSE liver disease: call rule not given here;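 on HepSE liver function tests abnormal: hepatic side effect score taken from the DILIps (drug-induced liver injury prediction system) training data, here covering abnormal liver function test findings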
[4] = system: Hepatotoxicity; remark: listed apart in the source;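 on HepSE Combined Scores: combined hepatic side effect score as listed in the training data of the Drug Induced Liver Injury Prediction System (DILIps)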;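 on HepSE cholecystitis: Cholecystitis-related hepatic side effect score drawn from the DILIps (drug-induced liver injury prediction) training data set; call rule not given here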;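 on HepSE cholelithiasis: hepatic side effect score for cholelithiasis, drawn from the DILIps training data for predicting drug-induced liver injury; call rule not given here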;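 on HepSE hepatitis: Hepatitis-related hepatic side effect score taken from the training data of DILIps, a prediction system for drug-induced liver injury; call rule not given here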; on HepSE liver disease: call rule not given here;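 on HepSE liver function tests abnormal: hepatic side effect score taken from the DILIps (drug-induced liver injury prediction system) training data, here covering abnormal liver function test findings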
[5] = system: Hepatotoxicity; remark: listed apart in the source; on HepSE liver disease: call rule not given here
[6] = system: Hepatotoxicity; remark: listed apart in the source; on HepSE liver disease: call rule not given here
[7] = system: Hepatotoxicity; remark: listed apart in the source
[8] = system: Hepatotoxicity; remark: listed apart in the source
[9] = system: Hepatotoxicity; remark: listed apart in the source
[10] = system: Hepatotoxicity; remark: listed apart in the source
[11] = system: Hepatotoxicity; remark: listed apart in the source
[12] = system: Hepatotoxicity; remark: listed apart in the source
[13] = system: Hepatotoxicity; remark: listed apart in the source
[14] = system: Hepatotoxicity; remark: listed apart in the source

N[C@@H](Cc1ccc(N(CCCl)CCCl)cc1)C(=O)O
HepSE_liver function tests abnormal [1]: 1
HepSE_Combined Scores [2]: 3
HepSE_cholelithiasis [3]: 0
HepSE_cholecystitis [4]: 0
HepSE_liver disease [5]: 0
HepSE_hepatitis [6]: 1
HepSE_cirrhosis [7]: 0
HepSE_liver fatty [8]: 0
HepSE_hepatic failure [9]: 0
HepSE_bilirubinemia [10]: 0
HepSE_hepatomegaly [11]: 0
HepSE_jaundice [12]: 1
HepSE_hepatic necrosis [13]: 0
HepSE_elevated liver function tests [14]: 0

CC(=O)OCC[N+](C)(C)C [ACETYLCHOLINE]
HepSE_liver function tests abnormal ([1]; Liver): 0
HepSE_Combined Scores ([2]; Liver): 0
HepSE_cholelithiasis ([3]; Liver): 0
HepSE_cholecystitis ([4]; Liver): 0
HepSE_liver disease ([5]; Liver): 0
HepSE_hepatitis ([6]; Liver): 0
HepSE_cirrhosis ([7]; Liver): 0
HepSE_liver fatty ([8]; Liver): 0
HepSE_hepatic failure ([9]; Liver): 0
HepSE_bilirubinemia ([10]; Liver): 0
HepSE_hepatomegaly ([11]; Liver): 0
HepSE_jaundice ([12]; Liver): 0
HepSE_hepatic necrosis ([13]; Liver): 0
HepSE_elevated liver function tests ([14]; Liver): 0

CN1CCN(CCCN2c3ccccc3Sc3ccc(C(F)(F)F)cc32)CC1 [TRIFLUOPERAZINE]
HepSE_liver function tests abnormal [1]: 0
HepSE_Combined Scores [2]: 1
HepSE_cholelithiasis [3]: 0
HepSE_cholecystitis [4]: 0
HepSE_liver disease [5]: 0
HepSE_hepatitis [6]: 0
HepSE_cirrhosis [7]: 0
HepSE_liver fatty [8]: 0
HepSE_hepatic failure [9]: 0
HepSE_bilirubinemia [10]: 0
HepSE_hepatomegaly [11]: 0
HepSE_jaundice [12]: 1
HepSE_hepatic necrosis [13]: 0
HepSE_elevated liver function tests [14]: 0

CCCCCCC(C)(C)c1cc(O)c2c(c1)OC(C)(C)C1CCC(=O)CC21 (configuration not stated) [NABILONE]
HepSE_liver function tests abnormal [1]: 0
HepSE_Combined Scores [2]: 0
HepSE_cholelithiasis [3]: 0
HepSE_cholecystitis [4]: 0
HepSE_liver disease [5]: 0
HepSE_hepatitis [6]: 0
HepSE_cirrhosis [7]: 0
HepSE_liver fatty [8]: 0
HepSE_hepatic failure [9]: 0
HepSE_bilirubinemia [10]: 0
HepSE_hepatomegaly [11]: 0
HepSE_jaundice [12]: 0
HepSE_hepatic necrosis [13]: 0
HepSE_elevated liver function tests [14]: 0

CC(C)(C)NC(=O)[C@@H]1CN(Cc2cccnc2)CCN1C[C@@H](O)C[C@@H](Cc1ccccc1)C(=O)N[C@H]1c2ccccc2C[C@H]1O.O
HepSE_liver function tests abnormal [1]: 0
HepSE_Combined Scores [2]: 4
HepSE_cholelithiasis [3]: 0
HepSE_cholecystitis [4]: 0
HepSE_liver disease [5]: 0
HepSE_hepatitis [6]: 1
HepSE_cirrhosis [7]: 0
HepSE_liver fatty [8]: 0
HepSE_hepatic failure [9]: 1
HepSE_bilirubinemia [10]: 1
HepSE_hepatomegaly [11]: 0
HepSE_jaundice [12]: 1
HepSE_hepatic necrosis [13]: 0
HepSE_elevated liver function tests [14]: 0

CN(C)CCc1c[nH]c2ccc(C[C@H]3COC(=O)N3)cc12 [ZOLMITRIPTAN]
HepSE_liver function tests abnormal [1]: 0
HepSE_Combined Scores [2]: 2
HepSE_cholelithiasis [3]: 0
HepSE_cholecystitis [4]: 0
HepSE_liver disease [5]: 1
HepSE_hepatitis [6]: 0
HepSE_cirrhosis [7]: 0
HepSE_liver fatty [8]: 0
HepSE_hepatic failure [9]: 0
HepSE_bilirubinemia [10]: 0
HepSE_hepatomegaly [11]: 0
HepSE_jaundice [12]: 1
HepSE_hepatic necrosis [13]: 0
HepSE_elevated liver function tests [14]: 0

C[C@@H]1C[C@H]2[C@@H]3CCC4=CC(=O)C=C[C@]4(C)[C@@]3(Cl)[C@@H](O)C[C@]2(C)[C@@]1(O)C(=O)CCl [MOMETASONE]
HepSE_liver function tests abnormal [1]: 0
HepSE_Combined Scores [2]: 0
HepSE_cholelithiasis [3]: 0
HepSE_cholecystitis [4]: 0
HepSE_liver disease [5]: 0
HepSE_hepatitis [6]: 0
HepSE_cirrhosis [7]: 0
HepSE_liver fatty [8]: 0
HepSE_hepatic failure [9]: 0
HepSE_bilirubinemia [10]: 0
HepSE_hepatomegaly [11]: 0
HepSE_jaundice [12]: 0
HepSE_hepatic necrosis [13]: 0
HepSE_elevated liver function tests [14]: 0

CO[C@@]1(NC(=O)Cc2cccs2)C(=O)N2C(C(=O)O)=C(COC(N)=O)CS[C@@H]21 [CEFOXITIN]
HepSE_liver function tests abnormal [1]: 0
HepSE_Combined Scores [2]: 1
HepSE_cholelithiasis [3]: 0
HepSE_cholecystitis [4]: 0
HepSE_liver disease [5]: 0
HepSE_hepatitis [6]: 0
HepSE_cirrhosis [7]: 0
HepSE_liver fatty [8]: 0
HepSE_hepatic failure [9]: 0
HepSE_bilirubinemia [10]: 0
HepSE_hepatomegaly [11]: 0
HepSE_jaundice [12]: 1
HepSE_hepatic necrosis [13]: 0
HepSE_elevated liver function tests [14]: 0

CCc1c2c(nc3ccc(OC(=O)N4CCC(N5CCCCC5)CC4)cc13)-c1cc3c(c(=O)n1C2)COC(=O)[C@]3(O)CC [IRINOTECAN]
HepSE_liver function tests abnormal [1]: 0
HepSE_Combined Scores [2]: 2
HepSE_cholelithiasis [3]: 0
HepSE_cholecystitis [4]: 0
HepSE_liver disease [5]: 0
HepSE_hepatitis [6]: 0
HepSE_cirrhosis [7]: 0
HepSE_liver fatty [8]: 0
HepSE_hepatic failure [9]: 0
HepSE_bilirubinemia [10]: 0
HepSE_hepatomegaly [11]: 1
HepSE_jaundice [12]: 1
HepSE_hepatic necrosis [13]: 0
HepSE_elevated liver function tests [14]: 0

VITAMIN B12
HepSE_liver function tests abnormal [1]: 0
HepSE_Combined Scores [2]: 0
HepSE_cholelithiasis [3]: 0
HepSE_cholecystitis [4]: 0
HepSE_liver disease [5]: 0
HepSE_hepatitis [6]: 0
HepSE_cirrhosis [7]: 0
HepSE_liver fatty [8]: 0
HepSE_hepatic failure [9]: 0
HepSE_bilirubinemia [10]: 0
HepSE_hepatomegaly [11]: 0
HepSE_jaundice [12]: 0
HepSE_hepatic necrosis [13]: 0
HepSE_elevated liver function tests [14]: 0

CCCNC(C)C(=O)Nc1c(C)csc1C(=O)OC (configuration not stated) [ARTICAINE]
HepSE_liver function tests abnormal [1]: 0
HepSE_Combined Scores [2]: 0
HepSE_cholelithiasis [3]: 0
HepSE_cholecystitis [4]: 0
HepSE_liver disease [5]: 0
HepSE_hepatitis [6]: 0
HepSE_cirrhosis [7]: 0
HepSE_liver fatty [8]: 0
HepSE_hepatic failure [9]: 0
HepSE_bilirubinemia [10]: 0
HepSE_hepatomegaly [11]: 0
HepSE_jaundice [12]: 0
HepSE_hepatic necrosis [13]: 0
HepSE_elevated liver function tests [14]: 0

COc1cc(C)c(/C=C/C(C)=C/C=C/C(C)=C/C(=O)O)c(C)c1C [ACITRETIN]
HepSE_liver function tests abnormal [1]: 0
HepSE_Combined Scores [2]: 3
HepSE_cholelithiasis [3]: 0
HepSE_cholecystitis [4]: 0
HepSE_liver disease [5]: 0
HepSE_hepatitis [6]: 1
HepSE_cirrhosis [7]: 0
HepSE_liver fatty [8]: 0
HepSE_hepatic failure [9]: 0
HepSE_bilirubinemia [10]: 0
HepSE_hepatomegaly [11]: 0
HepSE_jaundice [12]: 1
HepSE_hepatic necrosis [13]: 0
HepSE_elevated liver function tests [14]: 1

COc1nc(N)nc2c1ncn2[C@@H]1O[C@H](CO)[C@@H](O)[C@@H]1O [NELARABINE]
HepSE_liver function tests abnormal [1]: 0
HepSE_Combined Scores [2]: 0
HepSE_cholelithiasis [3]: 0
HepSE_cholecystitis [4]: 0
HepSE_liver disease [5]: 0
HepSE_hepatitis [6]: 0
HepSE_cirrhosis [7]: 0
HepSE_liver fatty [8]: 0
HepSE_hepatic failure [9]: 0
HepSE_bilirubinemia [10]: 0
HepSE_hepatomegaly [11]: 0
HepSE_jaundice [12]: 0
HepSE_hepatic necrosis [13]: 0
HepSE_elevated liver function tests [14]: 0
